Data set [1] is described as follows: Bioavailability study of 25/250 mg orally disintegrating tablets in healthy adult volunteers, fasting. In kind it is in vivo. The following applies: human, oral, Mean ± SD, 25/250 mg ODT, 36 healthy adult volunteers, plasma; for AUC(0-inf): read-out: AUCinf_obs.
For data set [2] the following is noted: combination of carbidopa and levodopa, no entacapone; cited from earlier work.

The structures appear in SMILES notation.

For orientation: Cmax means the highest concentration seen after dosing. By Tmax is commonly meant the time from dosing to the highest level. `C[C@@](Cc1ccc(O)c(O)c1)(NN)C(=O)O` [Carbidopa]: in data set [1], the Cmax was 0.0985 ± 0.0383 µg/mL, the time of peak concentration (Tmax) was 2.8 ± 1 h and the AUC(0-inf) was 0.56 ± 0.197 µg·h/mL.

For the compound `N[C@@H](Cc1ccc(O)c(O)c1)C(=O)O` [Levodopa, (−)-L-α-amino-β-(3,4-dihydroxybenzene) propanoic acid monohydrate], in data set [1], the highest concentration (Cmax) was 1.47 ± 0.567 µg/mL, the time to peak (Tmax) came out at 1.7 ± 0.8 h and the AUC(0-inf) was determined as 4.48 ± 1.58 µg·h/mL. Moreover, in data set [2], the “levodopa half-life without entacapone” value is 1.3 h.
